# From the supplement of paper PMC10307832
# Assays:
# Assay in all cases: relative viability (nuclei count vs DMSO), 5 days (fraction); higher = more cells survive
# COR-L23 = test system: COR-L23
# Outline: (§1)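 Lung cancer cell lines were pin-tool dosed in 1536-well plates on the day after seeding, with either a lone drug or a fixed anchor-drug dose plus five library-drug doses (not always all listed) in √10 steps. Nuclei were counted on 4× images after 5 days. Relative viability is the ratio of treated-well to vehicle-well nuclei counts, with each value a median of duplicate plates.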
# NCI-H2342 = test system: NCI-H2342
# Outline: as §1
# HCC-15 = test system: HCC-15
# Outline: as §1
# A-427 = test system: A-427
# Outline: as §1
# HCC-827 = test system: HCC-827
# Outline: as §1
# HARA = test system: HARA
# Outline: as §1
# 201T = test system: 201T
# Outline: as §1
# NCI-H1975 = test system: NCI-H1975
# Outline: as §1
# SK-MES-1 = test system: SK-MES-1
# Outline: as §1
# EKVX = test system: EKVX
# Outline: as §1
# BEN = test system: BEN
# Outline: as §1
# NCI-H596 = test system: NCI-H596
# Outline: as §1
# NCI-H23 = test system: NCI-H23
# Outline: as §1
# NCI-H1437 = test system: NCI-H1437
# Outline: as §1
# NCI-H358 = test system: NCI-H358
# Outline: as §1
# NCI-H1666 = test system: NCI-H1666
# Outline: as §1
# NCI-H650 = test system: NCI-H650
# Outline: as §1
# SW 900 = test system: SW 900
# Outline: as §1
# NCI-H838 = test system: NCI-H838
# Outline: as §1
# NCI-H1650 = test system: NCI-H1650
# Outline: as §1
# NCI-H1792 = test system: NCI-H1792
# Outline: as §1
# NCI-H441 = test system: NCI-H441
# Outline: as §1
smiles,measurement,setting,value
O=c1cc(N2CCOCC2)oc2c(-c3cccc4c3sc3ccccc34)cccc12 + Cc1nc(Nc2ncc(C(=O)Nc3c(C)cccc3Cl)s2)cc(N2CCN(CCO)CC2)n1 [Dasatinib] (partner 0.075 µM),relative viability,COR-L23; first compound 0.01 µM,0.534
same,relative viability,COR-L23; first compound 0.03162 µM,0.496
same,relative viability,COR-L23; first compound 0.1 µM,0.566
same,relative viability,COR-L23; first compound 0.3162 µM,0.446
same,relative viability,COR-L23; first compound 1 µM,0.512
same,relative viability,NCI-H2342; first compound 0.01 µM,0.352
same,relative viability,NCI-H2342; first compound 0.03162 µM,0.307
same,relative viability,NCI-H2342; first compound 0.1 µM,0.332
same,relative viability,NCI-H2342; first compound 0.3162 µM,0.322
same,relative viability,NCI-H2342; first compound 1 µM,0.325
same,relative viability,HCC-15; first compound 0.01 µM,0.63
same,relative viability,HCC-15; first compound 0.03162 µM,0.675
same,relative viability,HCC-15; first compound 0.1 µM,0.697
same,relative viability,HCC-15; first compound 0.3162 µM,0.577
same,relative viability,HCC-15; first compound 1 µM,0.602
same,relative viability,A-427; first compound 0.01 µM,0.728
same,relative viability,A-427; first compound 0.03162 µM,0.766
same,relative viability,A-427; first compound 0.1 µM,0.677
same,relative viability,A-427; first compound 0.3162 µM,0.636
same,relative viability,A-427; first compound 1 µM,0.792
same,relative viability,HCC-827; first compound 0.01 µM,0.338
same,relative viability,HCC-827; first compound 0.03162 µM,0.293
same,relative viability,HCC-827; first compound 0.1 µM,0.323
same,relative viability,HCC-827; first compound 0.3162 µM,0.283
same,relative viability,HCC-827; first compound 1 µM,0.328
same,relative viability,HARA; first compound 0.01 µM,0.208
same,relative viability,HARA; first compound 0.03162 µM,0.282
same,relative viability,HARA; first compound 0.1 µM,0.276
same,relative viability,HARA; first compound 0.3162 µM,0.268
same,relative viability,HARA; first compound 1 µM,0.243
same,relative viability,201T; first compound 0.01 µM,0.592
same,relative viability,201T; first compound 0.03162 µM,0.592
same,relative viability,201T; first compound 0.1 µM,0.596
same,relative viability,201T; first compound 0.3162 µM,0.505
same,relative viability,201T; first compound 1 µM,0.596
same,relative viability,NCI-H1975; first compound 0.01 µM,0.333
same,relative viability,NCI-H1975; first compound 0.03162 µM,0.349
same,relative viability,NCI-H1975; first compound 0.1 µM,0.333
same,relative viability,NCI-H1975; first compound 0.3162 µM,0.378
same,relative viability,NCI-H1975; first compound 1 µM,0.404
same,relative viability,SK-MES-1; first compound 0.01 µM,0.413
same,relative viability,SK-MES-1; first compound 0.03162 µM,0.363
same,relative viability,SK-MES-1; first compound 0.1 µM,0.349
same,relative viability,SK-MES-1; first compound 0.3162 µM,0.447
same,relative viability,SK-MES-1; first compound 1 µM,0.337
same,relative viability,EKVX; first compound 0.01 µM,0.528
same,relative viability,EKVX; first compound 0.03162 µM,0.469
same,relative viability,EKVX; first compound 0.1 µM,0.672
same,relative viability,EKVX; first compound 0.3162 µM,0.607
same,relative viability,EKVX; first compound 1 µM,0.605
same,relative viability,BEN; first compound 0.01 µM,0.317
same,relative viability,BEN; first compound 0.03162 µM,0.362
same,relative viability,BEN; first compound 0.1 µM,0.3
same,relative viability,BEN; first compound 0.3162 µM,0.354
same,relative viability,BEN; first compound 1 µM,0.266
same,relative viability,NCI-H596; first compound 0.01 µM,0.711
same,relative viability,NCI-H596; first compound 0.03162 µM,0.574
same,relative viability,NCI-H596; first compound 0.1 µM,0.561
same,relative viability,NCI-H596; first compound 0.3162 µM,0.558
same,relative viability,NCI-H596; first compound 1 µM,0.648
same,relative viability,NCI-H23; first compound 0.01 µM,0.828
same,relative viability,NCI-H23; first compound 0.03162 µM,0.911
same,relative viability,NCI-H23; first compound 0.3162 µM,0.815
same,relative viability,NCI-H23; first compound 1 µM,0.857
same,relative viability,NCI-H1437; first compound 0.01 µM,0.337
same,relative viability,NCI-H1437; first compound 0.03162 µM,0.329
same,relative viability,NCI-H1437; first compound 0.1 µM,0.492
same,relative viability,NCI-H1437; first compound 0.3162 µM,0.509
same,relative viability,NCI-H1437; first compound 1 µM,0.344
same,relative viability,NCI-H358; first compound 0.01 µM,0.179
same,relative viability,NCI-H358; first compound 0.03162 µM,0.145
same,relative viability,NCI-H358; first compound 0.1 µM,0.201
same,relative viability,NCI-H358; first compound 0.3162 µM,0.182
same,relative viability,NCI-H358; first compound 1 µM,0.167
same,relative viability,NCI-H1666; first compound 0.01 µM,0.775
same,relative viability,NCI-H1666; first compound 0.03162 µM,0.787
same,relative viability,NCI-H1666; first compound 0.1 µM,0.755
same,relative viability,NCI-H1666; first compound 0.3162 µM,0.809
same,relative viability,NCI-H1666; first compound 1 µM,0.754
same,relative viability,NCI-H650; first compound 0.03162 µM,0.493
same,relative viability,NCI-H650; first compound 0.1 µM,0.314
same,relative viability,NCI-H650; first compound 0.3162 µM,0.512
same,relative viability,NCI-H650; first compound 1 µM,0.405
same,relative viability,SW 900; first compound 0.01 µM,0.476
same,relative viability,SW 900; first compound 0.03162 µM,0.648
same,relative viability,SW 900; first compound 0.1 µM,0.66
same,relative viability,SW 900; first compound 0.3162 µM,0.539
same,relative viability,SW 900; first compound 1 µM,0.507
same,relative viability,NCI-H838; first compound 0.01 µM,0.278
same,relative viability,NCI-H838; first compound 0.03162 µM,0.301
same,relative viability,NCI-H838; first compound 0.1 µM,0.319
same,relative viability,NCI-H838; first compound 0.3162 µM,0.294
same,relative viability,NCI-H838; first compound 1 µM,0.271
same,relative viability,NCI-H1650; first compound 0.01 µM,0.34
same,relative viability,NCI-H1650; first compound 0.03162 µM,0.33
same,relative viability,NCI-H1650; first compound 0.1 µM,0.315
same,relative viability,NCI-H1650; first compound 0.3162 µM,0.287
same,relative viability,NCI-H1650; first compound 1 µM,0.276
same,relative viability,NCI-H1792; first compound 0.01 µM,0.857
same,relative viability,NCI-H1792; first compound 0.03162 µM,0.663
same,relative viability,NCI-H1792; first compound 0.1 µM,0.856
same,relative viability,NCI-H1792; first compound 0.3162 µM,0.996
same,relative viability,NCI-H1792; first compound 1 µM,0.788
same,relative viability,NCI-H441; first compound 0.01 µM,0.623
same,relative viability,NCI-H441; first compound 0.03162 µM,0.676
same,relative viability,NCI-H441; first compound 0.1 µM,0.594
same,relative viability,NCI-H441; first compound 0.3162 µM,0.492
same,relative viability,NCI-H441; first compound 1 µM,0.574
